Reference: patent EP0449955B1, “SYNTHETIC HIV-LIKE PEPTIDES, THEIR COMPOSITIONS AND USES” (CLARITY TECHNOLOGIES INCORPORATED, priority 1988, dated 1996)

Tested on: antibodies to HIV-2
Assay: EIA of HIV-2 peptide-BSA conjugates with macaque sera
Format: binding
Details: macaque sera containing or not containing antibodies to HIV-2, Figure 7
Description: The synthetic peptides of Figures 1-8 were reduced with 10mM DTT, or with immobilized DTT (Reductacryl, Calbiochem, San Diego, California, U.S.A., 10 mg Reductacryl per mg peptide) overnight at 4°C, pH8 in 10mM borate or other buffers depending upon peptide solubility, with gentle mixing. KLH was dissolved at a concentration of 10-30 mg/ml in 10 mM phosphate buffer pH 7.2., and BSA was dissolved at a concentration of 20-80 mg/ml for treatment with heterobifunctional linkers MBS (m-Maleimidobenzoyl-N-hydroxysuccinimide ester), SPDP [N-Succinimidyl 3-(2 pyridyldithio)propionate], or Sulfo-SMCC [Sulfo-Succinimidyl 4(N-maleimidomethyl)-cyclohexane-1-carboxylate]. The heterobifunctional linkers were added to the protein solutions in a molar excess of linker to BSA of 100, or of linker to KLH of 1000. MBS was dissolved in DMF at 10mg/ml, SPDP was dissolved in absolute ethanol at 10mg/ml and each of these was added dropwise with mixing into the protein solution, whereas the Sulfo-SMCC dry powder was dissolved into the protein solution. Each protein-linker mixture was reacted at room temperature for 15 minutes to 1 hour and then free linker was separated from BSA-linker or KLH-linker by gel chromatography with Sephadex G25 using 50mM phosphate, pH 6 for KLH-MBS, 10mM acetate, 100 mM Nacl, pH 4.6 for BSA-SPDP, or 100 mM phosphate, 1 mM EDTA, pH 6.5 for BSA-SMCC. The reduced peptides were separated from DTT by Sephadex G10 column chromatography when soluble DTT was used, or by centrifugation followed by filtration through a 0.22 micron filter when Reductacryl was used. Reduced peptides were combined with linker treated KLH or BSA in molar ratios of 100-1000 peptide/KLH-MBS, 1-50 peptide/BSA-SMCC, and 0.1-10 peptide/BSA-SPDP. Each reduced peptide was added to the linker-treated protein with mixing, overlayed with N₂, and then mixed gently at room temperature for one hour, and then overnight at 4°C. The SMCC-BSA conjugates were further treated with a 1 mM final concentration of mercaptoethylamine for 4 hours, and then dialyzed overnight against 100 volumes of buffer (20mM phosphate, 1 mM EDTA, 0.05% sodium azide, pH 6.5) at 4°C. All other conjugates were adjusted to a final concentration of sodium azide of 0.05%. Optimal molar ratios of peptide/protein for the conjugates were determined by solubility and antigenicity (as evaluated by EIA).
The free peptides or peptide-protein conjugates of Figures 1-13 were initially screened for immunoreactivity by coating each well of polystyrene microtiter EIA plates (Costar, Cambridge, Massachusetts, U.S.A.) with 0.2 ml amounts of concentrations of 5-50 micrograms/ml peptide in Tris buffer, 10 mM, pH 8.0, at 4°C overnight. […]

ARLNSWGCAFRQVCHGC [2S25]
discrimination of positive from negative samples: most favorable performances
